Laboratory results taken from the NIST ThermoML archive (doi:10.1016/j.jct.2005.03.004).
± gives the expanded uncertainty stated by the source.

Conditions: Liquid

CO [methanol]
Conditions | vapor or sublimation pressure [kPa]
298.15 K | 16.97 ± 0.046
303.15 K | 21.88 ± 0.053
308.15 K | 27.96 ± 0.066
313.15 K | 35.44 ± 0.081
318.15 K | 44.54 ± 0.099
323.15 K | 55.58 ± 0.11
